Reference: patent publication US20050154061A1, “Acetic acid derivatives” (Bayer Aktiengesellschaft, priority 2001, published 2005)

These molecules were tested against T1, GAL4-PPARδ chimera (Homo sapiens, UniProt Q03181) (assay: Cellular transactivation assay (luciferase reporter)). Settings: CHO cells stably expressing GAL4-PPARδ chimera and luciferase reporter; 24 hours stimulation.
T1 construct: expressed in transfected cells
Format: cell-based
Text: Cellular Transactivation Assay:
A cellular assay is used to identify activators of the peroxisome proliferator-activated receptor delta (PPAR-delta).
Since mammalian cells contain different endogenous nuclear receptors which may complicate an unambiguous interpretation of the results, an established chimera system is used in which the ligand binding domain of the human PPARδ receptor is fused to the DNA binding domain of the yeast transcription factor GAL4. The resulting GAL4-PPARδ chimera is co-transfected and stably expressed in CHO cells having a reporter construct.
The reporter construct, which contains five copies of the GAL4 binding site upstream of a thymidine kinase promoter, expresses firefly luciferase (Photinus pyralis) following activation and binding of GAL4-PPARδ.
Transactivation Assay (Luciferase Reporter):
CHO (chinese hamster ovary) cells are sown in CHO-A-SFM medium (GIBCO), supplemented by 2.5% foetal calf serum, 1% penicillin/streptomycin (GIBCO), at a cell density of 2×10^3 cells per well in a 384 well plate (Greiner). The cells are cultivated at 37° C. for 48 h and then stimulated. To this end, the substances to be tested are taken up in the abovementioned medium and added to the cells. After a stimulation period of 24 hours, the luciferase activity is measured using a video camera. The relative light units measured give, as a function of the substance concentration, a sigmoidal stimulation curve.

T1 sequence (Q03181 with tags, fused parts or gaps limits assumed): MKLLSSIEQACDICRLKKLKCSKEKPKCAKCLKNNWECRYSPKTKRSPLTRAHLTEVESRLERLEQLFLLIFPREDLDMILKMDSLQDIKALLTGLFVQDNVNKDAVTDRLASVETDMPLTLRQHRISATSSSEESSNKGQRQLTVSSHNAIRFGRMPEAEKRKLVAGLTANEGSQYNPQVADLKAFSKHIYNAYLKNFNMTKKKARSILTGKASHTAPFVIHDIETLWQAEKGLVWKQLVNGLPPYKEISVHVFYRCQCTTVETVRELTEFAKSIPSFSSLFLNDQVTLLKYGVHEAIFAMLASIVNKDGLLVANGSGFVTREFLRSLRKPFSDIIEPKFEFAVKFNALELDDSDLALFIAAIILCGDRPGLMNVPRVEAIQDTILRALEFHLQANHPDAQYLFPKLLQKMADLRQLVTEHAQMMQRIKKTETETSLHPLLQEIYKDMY

Row | Structure (SMILES) | EC50 [nM]
1 | Cc1cc(CN(CC(=O)Nc2ccc(Cl)cc2Cl)C2CCCC2)ccc1OC(C)C(=O)O (stereo not shown) [Example 8] | 1 to 100
2 | CC(C)(Oc1ccc(CN(CC(=O)Nc2ccc(Cl)cc2Cl)C2CCCC2)cc1)C(=O)O [Example 9] | 1 to 100
3 | Cc1cc(CN(CC(=O)Nc2ccc(Cl)cc2Cl)C2CCCCC2)ccc1OC(C)(C)C(=O)O [Example 1, 2-[4-[[[2-[(2,4-Dichlorophenyl)amino]-2-oxoethyl]cyclohexylamino]methyl]-2-methylphenoxy]-2-methylpropanoic Acid] | 1 to 100

Now from value to molecule:

Row | EC50 [nM] | Structure (SMILES)
4 | 1 to 100 | Cc1cc(CN(CCNc2ccc(Cl)cc2Cl)C2CCCCC2)ccc1OC(C)(C)C(=O)O [Example 4, 2-{4-[(Cyclohexyl{2-[(2,4-dichlorophenyl)amino]ethyl}amino)methyl]-2-methylphenoxy}-2-methylpropanoic Acid]
5 | 1 to 100 | Cc1cc(CN(CC(=O)Nc2ccc(Cl)cc2Cl)C2CCCCC2)ccc1OCC(=O)O [Example 2, 2-[4-[[[2-[(2,4-Dichlorophenyl)amino]-2-oxoethyl]cyclohexylamino]methyl]-2-methylphenoxy]acetic Acid]
6 | 1 to 100 | Cc1ccc(NC(=O)CN(Cc2ccc(OC(C)C(=O)O)c(C)c2)C2CCCCC2)c(C)c1 (stereo not shown) [Example 6, 2-[4-[[[2-[(2,4-Dimethylphenyl)amino]-2-oxoethyl]cyclohexylamino]methyl]-2-methylphenoxy]propanoic Acid]
7 | 1 to 100 | Cc1cc(CN(CC(=O)Nc2ccc(Cl)cc2Cl)C2C(C)CCC2C)ccc1OC(C)(C)C(=O)O (stereo not shown) [Example 3, 2-[4-[[[2-[(2,4-Dichlorophenyl)amino]-2-oxoethyl]-(2,5-dimethylcyclopentyl)amino]methyl]-2-methylphenoxy]-2-methylpropanoic Acid]
